Results as given in patent US8541460B2, “PDK-1/Akt signaling inhibitors” (The Ohio State University, priority 2003, dated 2013).

Columns and labels:
phospho-473Ser Akt = assay: Western blot of Akt and phospho-Akt in PC-3 cells; assay type: cell-based, human; details: 1 μM
Experimental: Immunoblotting. The general procedure for the Western blot analysis of Akt and phospho-Akt is described as follows. Cells were washed in PBS, resuspended in SDS sample buffer sonicated by an ultrasonic sonicator for 5 sec, and boiled for 5 min. After brief centrifugation, equivalent protein concentrations from the soluble fractions were resolved in 10% SDS-polyacrylamide gels on a Minigel apparatus, and transferred to a nitrocellulose membrane using a semi-dry transfer cell. The transblotted membrane was washed three times with TBS containing 0.05% Tween 20 (TBST). After blocking with TBST containing 5% nonfat milk for 60 min., the membrane was incubated with the primary antibody at 1:1,000 dilution in TBST-5% low fat milk at 4° C. for 12 h, and was then washed three times with TBST. The membrane was probed with goat anti-rabbit IgG-HRP conjugates (1:1,000) for 1 h at room temperature, and was washed with TBST three times. The immunoblots were visualized by enhanced chemiluminescence.

HCT-116 = assay: NCI DTP cell line screen (SRB), Colon Cancer; assay type: cell-based
Experimental: (§1) Screening of compounds 70 and 71 against several cancer cell lines The human tumor cell lines of the cancer screening panel are grown in RPMI 1640 medium containing 5% fetal bovine serum and 2 mM L-glutamine. For a typical screening experiment, cells are inoculated into 96 well microtiter plates in 100 μL at plating densities ranging from 5,000 to 40,000 cells/well depending on the doubling time of individual cell lines. After cell inoculation, the microtiter plates are incubated at 37° C., 5% CO2, 95% air and 100% relative humidity for 24 h prior to addition of experimental drugs.
(§2) After 24 h, two plates of each cell line are fixed in situ with TCA, to represent a measurement of the cell population for each cell line at the time of drug addition (Tz). Experimental drugs are solubilized in dimethyl sulfoxide at 400-fold the desired final maximum test concentration and stored frozen prior to use. At the time of drug addition, an aliquot of frozen concentrate is thawed and diluted to twice the desired final maximum test concentration with complete medium containing 50 μg/ml gentamicin. Additional four, 10-fold or ½ log serial dilutions are made to provide a total of five drug concentrations plus control. Aliquots of 100 μl of these different drug dilutions are added to the appropriate microtiter wells already containing 100 μl of medium, resulting in the required final drug concentrations.
(§3) Following drug addition, the plates are incubated for an additional 48 h at 37° C., 5% CO2, 95% air, and 100% relative humidity. For adherent cells, the assay is terminated by the addition of cold TCA. Cells are fixed in situ by the gentle addition of 50 μl of cold 50% (w/v) TCA (final concentration, 10% TCA) and incubated for 60 minutes at 4° C. The supernatant is discarded, and the plates are washed five times with tap water and air dried. Sulforhodamine B (SRB) solution (100 μl) at 0.4% (w/v) in 1% acetic acid is added to each well, and plates are incubated for 10 minutes at room temperature. After staining, unbound dye is removed by washing five times with 1% acetic acid and the plates are air dried. Bound stain is subsequently solubilized with 10 mM trizma base, and the absorbance is read on an automated plate reader at a wavelength of 515 nm. For suspension cells, the methodology is the same except that the assay is terminated by fixing settled cells at the bottom of the wells by gently adding 50 μl of 80% TCA (final concentration, 16% TCA). Using the seven absorbance measurements [time zero, (Tz), control growth, (C), and test growth in the presence of drug at the five concentration levels (Ti)], the percentage growth is calculated at each of the drug concentrations levels. Percentage growth inhibition is calculated as: [(Ti−Tz)/(C−Tz)]×100 for concentrations for which Ti>/=Tz [(Ti−Tz)/Tz]×100 for concentrations for which Ti<Tz
(§4) Three dose response parameters are calculated for each experimental agent. […] The drug concentration resulting in total growth inhibition (TGI) is calculated from Ti=Tz. […] Values are calculated for each of these three parameters if the level of activity is reached; however, if the effect is not reached or is exceeded, the value for that parameter is expressed as greater or less than the maximum or minimum concentration tested.
(§5) The methods described were used to test compounds 70 and 71 on a panel of sixty cell lines under a screening service provided by the Developmental Therapeutics Program at the National Institutes of Health. Shown in FIG. 1C are 1, RPMI-8226 leukemia cells; 2; NCI-H322M non-small cell lung cancer cells; 3, HT29 colon cancer cells; 4, U251 CNS cancer cells; 5, SK-MEL-28 melanoma cancer cells; 6, SK-OV-3 ovarian cancer cells; 7, RXF 393 renal cancer cells; 8, PC-3 prostate cancer cells; 9, MDA-MB-231 breast cancer cells.

SW-620 = assay: NCI DTP cell line screen (SRB), Colon Cancer; assay type: cell-based
Experimental: as §1, §2, §3, §4, §5

KM12 = assay: NCI DTP cell line screen (SRB), Colon Cancer; assay type: cell-based
Experimental: as §1, §2, §3, §4, §5

UACC-62 = assay: NCI DTP cell line screen (SRB), Melanoma; assay type: cell-based
MCF7 = assay: NCI DTP cell line screen (SRB), Breast Cancer; assay type: cell-based, human; details: MCF7
Experimental: as §1, §2, §3, §4, §5

MDA-MB-435 = assay: NCI DTP cell line screen (SRB), Breast Cancer; assay type: cell-based, human
Experimental: as §1, §2, §3, §4, §5

## NCC(=O)Nc1ccc(-n2nc(C(F)(F)F)cc2-c2ccc3c(ccc4ccccc43)c2)cc1 [Compound 70, 2-Amino-N-{4-[5-(2-phenanthrenyl)-3-(trifluoromethyl)-1H-pyrazol-1-yl]-phenyl}-acetamide]
phospho-473Ser Akt
  phospho-Akt level: substantial decrease in the phospho-Akt level
HCT-116; Log10 Concentration −4.0
  Percent Growth: 5%
HCT-116; Log10 Concentration −5.0
  Percent Growth: −9%
HCT-116; Log10 Concentration −6.0
  Percent Growth: 57%
HCT-116; Log10 Concentration −7.0
  Percent Growth: 93%
HCT-116; Log10 Concentration −8.0
  Percent Growth: 107%
SW-620
  TGI: 4.23E−06
SW-620; Log10 Concentration −4.0
  Percent Growth: −28%
SW-620; Log10 Concentration −5.0
  Percent Growth: −32%
SW-620; Log10 Concentration −6.0
  Percent Growth: 54%
SW-620; Log10 Concentration −7.0
  Percent Growth: 100%
SW-620; Log10 Concentration −8.0
  Percent Growth: 100%
KM12
  TGI: 2.67E−06
KM12; Log10 Concentration −4.0
  Percent Growth: −51%
KM12; Log10 Concentration −5.0
  Percent Growth: −73%
KM12; Log10 Concentration −6.0
  Percent Growth: 54%
KM12; Log10 Concentration −7.0
  Percent Growth: 91%
KM12; Log10 Concentration −8.0
  Percent Growth: 98%
UACC-62
  TGI: 3.15E−06
UACC-62; Log10 Concentration −4.0
  Percent Growth: −46%
UACC-62; Log10 Concentration −5.0
  Percent Growth: −80%
UACC-62; Log10 Concentration −6.0
  Percent Growth: 79%
UACC-62; Log10 Concentration −7.0
  Percent Growth: 94%
UACC-62; Log10 Concentration −8.0
  Percent Growth: 105%
MCF7; Log10 Concentration −4.0
  Percent Growth: −44%
MCF7; Log10 Concentration −5.0
  Percent Growth: −57%
MCF7; Log10 Concentration −6.0
  Percent Growth: 43%
MCF7; Log10 Concentration −7.0
  Percent Growth: 89%
MCF7; Log10 Concentration −8.0
  Percent Growth: 91%
MCF7; in M (unit assumed)
  TGI: 2.72E−06
MDA-MB-435; Log10 Concentration −4.0
  Percent Growth: −14%
MDA-MB-435; Log10 Concentration −5.0
  Percent Growth: −69%
MDA-MB-435; Log10 Concentration −6.0
  Percent Growth: 68%
MDA-MB-435; Log10 Concentration −7.0
  Percent Growth: 98%
MDA-MB-435; Log10 Concentration −8.0
  Percent Growth: 103%
MDA-MB-435; in M (unit assumed)
  TGI: 3.14E−06
